# Activity calls are given as the source filed them. How the calls were made is not given here.
# Molecular target: Bcl-2-like protein 10 (Homo sapiens) (UniProt Q9HD36)
# Assay: Bcl-B Bim peptide interaction hit potency – biochemical, dose response, multiplexed HTS hits, confirmation (AID 2077)
# Conditions: bead-based flow cytometry, Bim peptide-Bcl-B binding
# Chain of Bcl-2-like protein 10 (Homo sapiens) (Q9HD36 whole entry, looked up): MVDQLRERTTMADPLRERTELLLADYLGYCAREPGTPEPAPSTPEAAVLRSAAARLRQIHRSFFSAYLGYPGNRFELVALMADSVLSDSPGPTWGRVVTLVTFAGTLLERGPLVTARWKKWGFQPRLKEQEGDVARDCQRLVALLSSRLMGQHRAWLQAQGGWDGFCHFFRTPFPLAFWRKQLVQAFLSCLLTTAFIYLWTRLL
row,SMILES,EC50
1,COc1ccc(N2C(=O)C(Cl)=C(NC3C(=O)N(c4ccccc4)N(C)C3C)C2=O)cc1 (stereo unspecified),0.62 µM

# Same assay, conditions: bead-based flow cytometry, Bim peptide-Bcl-B binding; at 100 µM (top of the series)
row,SMILES,"response change, negative = inhibition"
1,COc1cc(N=C2SSNC2Cl)c(OC)cc1Cl (stereo unspecified),inactive
2,CCN(CC)c1ccc(NC(=O)c2ccccc2F)cc1S(=O)(=O)Nc1ccccc1OC,inactive
3,C=CS(=O)(=O)c1sc(Cl)c(N2CCOCC2)c1[N+](=O)[O-],inactive
4,Cc1ccc(-c2cc(-c3ccc(F)cc3)c(C#N)c(N)n2)o1,inactive
5,COc1ccc(CCNC(=O)c2ccc3nc(-c4ccco4)c(-c4ccco4)nc3c2)cc1OC,inactive
6,O=C(/C=C/c1ccc(-c2ccccc2[N+](=O)[O-])o1)c1ccccc1,inactive
7,CCN(CC)c1ccc(NC(=O)COc2ccccc2C)cc1S(=O)(=O)Nc1ccccc1OC,inactive
8,Cc1ccc(-c2cc(C(=O)Nc3nccs3)c3ccccc3n2)o1,inactive
9,Cc1cc2nn(-c3cccc4ccccc34)nc2cc1N,inactive
10,Cc1ccc(-c2cc(-c3ccc(C)o3)nc(N)c2C#N)cc1,inactive
11,CNC1CCC(Br)CC(C(=O)/C=C/c2cccc(OC)c2OC)C1=O (stereo unspecified),inactive
12,CC(=O)OCCCNc1cc(Sc2nc3ccccc3s2)c2nonc2c1[N+](=O)[O-],inactive
13,Cc1ccc(-c2nc3c(c(=O)[nH]c(=O)n3Cc3ccccc3)n2C)o1,inactive
14,Oc1ccc(NCc2ccccc2OCc2ccccc2)cc1,inactive
15,COc1cc(CNc2ccc3[nH]c(=O)[nH]c3c2)cc(Br)c1OCC(=O)NC(C)(C)C,inactive
16,CCN1C(=O)/C(=C\C=C2/C=CC=CN2CC)SC1=S,inactive
17,O=[N+]([O-])c1c(NCCCO)cc(Sc2nc3ccccc3s2)c2nonc12,inactive
18,CNC(CC(=O)c1ccc([N+](=O)[O-])cc1)C(Cl)(Cl)Cl (stereo unspecified),inactive
19,O=C1C(Cl)=C(N2CCN(c3ccccc3[N+](=O)[O-])CC2)C(=O)c2ccccc21,inactive
20,COc1ccccc1NC1=C(NC(C)=O)C(=O)c2ccccc2C1=O,inactive
21,O=C1c2ccccc2C(=O)N1CN(C(=O)COc1ccc(Cl)cc1Cl)c1cccc(F)c1,inactive
22,CCN(CC)C(=O)COC(=O)c1cc(-c2ccco2)nc2ccccc12,inactive
23,CN(CCO)c1cc(Sc2nc3ccccc3s2)c2nonc2c1[N+](=O)[O-],inactive
24,Cc1nnc(Sc2cc(NCCO)c([N+](=O)[O-])c3nonc23)s1,inactive
25,CCOc1ccccc1CNc1ccc(O)cc1,inactive

# — PubChem BioAssay AID2077 (NMMLSC, 2009)
